Where a SMILES comes first, the peptide text is derived from it. The star is where a group is joined. Cbz = O=C(OCc1ccccc1)*; CH2F = FC*
Key:
[1] = test system: RNase L KO A549 cells; experiment: Cell death assay, IncuCyte real-time imaging, dual dye; assay type: cell-based, human; set-up: AZA sensitivity: dose or concentration left out as unconfirmed
Method: (§1) Cell lines and viruses. Human A549 cells (ATCC® CCL-185™) validated by STR analysis were cultured in RPMI 1640 medium (Gibco) supplemented with 10% fetal bovine serum (FBS), 100U/ml penicillin and 100 μg/ml streptomycin. PC3, DU145 and C4-2 cells were grown in RPMI with 10% FBS. HAEC, BEAS 2B and BETA cells were grown in LHC-8 (Biofluids/Biosource, catalog #P141-500) supplemented with 0.1% epinehrin (Biofluids/Biosource, catalog #355-002), 3.3 mM retinoic acid (Biofluids/Biosource, catalog #348-001) and penicillin-streptomycin-fungizone (Invitogen, catalog #15240-062) and were a gift from Drs. Suzy Comhair and Serpil Erzurum (Cleveland Clinic).
(§2) The A549 RNase L KO cells were described previously. Additional knockout cells were generated using the CRISPR Cas9 system. The sgRNA sequences were chosen from a published database. The guide RNA sequences were synthesized as DNA oligonucleotides by IDT. Primers were annealed, phosphorylated and ligated into vector LentiCRISPR v2 (Addgene 52961) that was prepared by digestion with BsmBI. The resulting plasmids were transformed into Stbl3 chemically competent cells (Invitrogen) and grown on a bacterial culture plate at 37° C. Colonies were screened by PCR using the U6 primer and gene specific reverse primer to generate approximately 300 bp product. Positive clones were cultured and plasmid DNA was prepared and sequence verified using the U6 primer. The AKAP7 sgRNA sequences are: sgAKAP7-2 FW CACCGTGAGCGACTGGCCAAAGCAA (SEQ ID NO:1) and sgAKAP7-2 REV AAACTTGCTTTGGCCAGTCGCTCA C (SEQ ID NO:2). The PDE12 sgRNA sequences are: sgPDE12_10.FW CACCGGGATGCCTGGCAAGACGGCG (SEQ ID NO:3) and sgPDE12_10.REV AAACCGCCGTCTTGCCAGGCATCCC (SEQ ID NO:4). Cell cloning was done by limited dilution. The CRISPR vector, pLenti-sgRL-6, was used to knockout RNase L in PC3 cells as we described for RNase L KO A549 cells. To obtain the PDE12/AKAP7 DKO cells, a PDE12 knockout A549 cell line was infected with pseudo lentiviruses expression sgRNA for AKAP7 followed by single cell cloning. The PDE12/RNase L DKO cells were obtained by infecting the RNase L KO A549 cells with the pseudo lentivirus expressing sgRNA for AKAP7 followed by single cell cloning. Resulting clones were screened for knock-out of expression using Western Blots with anti-PDE12 antibody (Abcam ab87738), anti-AKAP7 (Proteintech: Cat#12591-1-AP) antibody or monoclonal antibody against human RNase L [13].
(§3) Cells (20,000 per well) were seeded in 24-well plates or 8,000 cells per well in 96-well plates and treated as stated in figure legends. The cells were incubated with 250 nM Sytox-Green dye (Thermo Fisher), a nucleic acid stain that is an indicator of dead cells and which is impermeant to live cells, and 250 nM of cell permeable dye Syto™ 60-Red (ThermoFisher), which allows quantification of the total number of cells present in each field, using an IncuCyte Live-Cell Imaging System and software (Essen Instruments 2015A) for 72 hours. Cell death was measured by counting the green objects per/well (dead cells, green) and then normalizing to the total number of cells per/well (red objects) at each time point using IncuCyte software.

[2] = test system: WT A549 cells; experiment: as above; assay type: cell-based
Method: as §1, §3

[3] = test system: PC3 prostate cancer cells; experiment: Cell death assay, IncuCyte real-time imaging; assay type: cell-based, human; details: FIG. 9
Method: as §1, §3

[4] = test system: DU145 prostate cancer cells; experiment: Cell death assay, IncuCyte real-time imaging; assay type: cell-based, human; details: FIG. 8
Method: as §1, §3

[5] = test system: C4-2 prostate cancer cells; experiment: Cell death assay, IncuCyte real-time imaging; assay type: cell-based, human; details: FIG. 8
Method: as §1, §3

[6] = test system: WT A549 cells; experiment: PARP cleavage, Western blot; assay type: cell-based, human; details: 50 uM AZA for 48 hours
Method: (§4) PARP cleavage was monitored in Western blots probed with [anti PAPR1 (rabbit polyclonal) (Santa Cruz Biotechnology)]. β-actin levels were monitored with 3-actin (mouse monoclonal) antibody (Sigma-Aldrich) to evaluated as a control.
(§5) Prior to lysis, cells were washed twice in cold phosphate-buffered saline (PBS). Cell extracts were prepared with lysis buffer supplemented with phosphatase/protease inhibitors followed by incubation on ice for 20 min. Lysates were subjected to centrifugation at 12,000 g for 10 min, and the supernatants collected and protein quantified by Bradford assays (BioRaD). Cell lysates ([…]) were separated on 8% or 10% SDS PAGE gels and proteins were transferred to polyvinylidene difluoride membranes (0.45 μm) (BioRaD) and probed with antibodies according to the different manufacturers' recommendations.

[7] = test system: RNase L KO A549 cells; experiment: PARP cleavage, Western blot; assay type: cell-based, human; details: 50 uM AZA for 48 hours
Method: as §4, §5

[8] = test system: RNASEL KO A549 cells with knock-in of mutant RNase L (R667A); experiment: Cell death assay, IncuCyte, RNase L knock-in; assay type: cell-based, human; details: 50 μM AZA for 72 hr
Method: (§6) Both WT and R667A RNase L have a FLAG epitope attached. Cells were lysed after 72 hr and proteins were analyzed by Western blot probed with anti-Flag M2 antibody (Sigma-Aldrich) (upper) and anti-β-actin antibody (Sigma-Aldrich) (lower). […] Dead cells and total cells were determined with an IncuCyte real-time imaging system using a dual-dye method. A minimum of three wells were treated with each experimental condition. The data are average±SD from three independent replicates. […] Three separate wells were treated with each experimental condition and a minimum of 4 image fields (>10,000 cells/well) were analyzed per well.
as §3

[9] = test system: RNASEL KO A549 cells with knock-in of WT RNase L; experiment: Cell death assay, IncuCyte, RNase L knock-in; assay type: cell-based, human; details: 50 μM AZA for 72 hr
Method: as §6, §3

[10] = test system: ADAR1 p150 KO A549 cells; experiment: Cell survival, IncuCyte; assay type: cell-based, human; set-up: dose or concentration left out as unconfirmed; details: AZA (FIG. 19C)
Method: as §3

[11] = test system: WT A549 cells; experiment: Apoptosis assay (caspase 3/7), IncuCyte; assay type: cell-based, human
Method: (§7) Cells were seeded in 96-well plates and treated with Aza as above. The cells were incubated with IncuCyte™ Kinetic Caspase-3/7 Apoptosis Assay Reagent (green) according to manufacturer's protocol and with 250 nM of Syto Red dye (ThermoFisher) for 24 hours. The apoptotic index was determined by determining the total count [green Integrated Intensity (GCU×μm^2/Image)] and then normalizing by count confluence (percent) using IncuCyte software.

[12] = test system: MAVS/RNase L DKO A549 cells; experiment: Apoptosis assay (caspase 3/7), IncuCyte; assay type: cell-based, human; details: 50 uM AZA
Method: as §7

[13] = test system: MAVS KO A549 cells; experiment: Apoptosis assay (caspase 3/7), IncuCyte; assay type: cell-based, human; details: 50 uM AZA, compared with WT
Method: as §7

[14] = test system: RNase L KO A549 cells; experiment: Apoptosis assay (caspase 3/7), IncuCyte; assay type: cell-based, human; details: 50 uM AZA
Method: as §7

[15] = test system: OAS (1, 2, 3) triple KO HME cells; experiment: Cell death assay, IncuCyte; assay type: cell-based, human; details: AZA 50 μM, compared with WT HME
Method: as §6, §3

[16] = test system: bronchial epithelium BEAS 2B cells; experiment: Cell death assay, IncuCyte live-cell imaging; assay type: cell-based, human; details: FIG. 7
Method: as §1, §3

[17] = test system: primary alveolar epithelial cells HAEC; experiment: Cell death assay, IncuCyte live-cell imaging; assay type: cell-based, human; details: FIG. 7
Method: as §1, §3

[18] = test system: bronchial epithelial cells BETA; experiment: Cell death assay, IncuCyte live-cell imaging; assay type: cell-based, human; details: FIG. 7
Method: as §1, §3

[19] = test system: MAVS-ADAR1 DKO A549 cells; experiment: Cell survival, IncuCyte; assay type: cell-based, human; details: 50 mM AZA (FIG. 19), compared with WT cells
Method: (§8) In FIG. 19 WT, RNase L-ADAR1 DKO, MAVS-ADAR1 DKO, MAVS-ADAR1-RNase L TKO and p150 ADAR1 isoform KO A549 cells were incubated without AZA (panel A) or with […] AZA (panels B and C). Percent survival after […] AZA treatment was calculated using an IncuCyte system. The data are average=±SD from three independent replicates. Similar data were obtained from two additional independent experiments.
as §3

[20] = test system: MAVS-ADAR1-RNase L TKO A549 cells; experiment: Cell survival, IncuCyte; assay type: cell-based, human; details: 50 μM AZA (FIG. 19)
Method: as §8, §3

[21] = test system: RNase L-ADAR1 DKO A549 cells; experiment: Cell survival, IncuCyte; assay type: cell-based, human; details: 50 mM AZA (FIG. 19)
Method: as §8, §3

[22] = test system: MAVS-RNase L DKO A549 cells; experiment: Cell death assay, IncuCyte real-time imaging; assay type: cell-based, human; details: concentrations up to 100 uM
Method: as §3, with “SytoTM” for “Syto™”, “[…])” for “2015A)”

[23] = test system: MAVS KO A549 cells; experiment: Cell death assay, IncuCyte real-time imaging; assay type: cell-based, human; details: different doses of AZA, compared with WT
Method: as §3, with “SytoTM” for “Syto™”, “[…])” for “2015A)”

[24] = test system: PDE12 KO A549 cells; experiment: Cell survival, IncuCyte; assay type: cell-based, human; details: 50 uM AZA (FIG. 11)
Method: as §2, with “To obtain the PDE12/AKAP7 DKO cells, a PDE12 knockout A549 cell line was infected with pseudo lentiviruses expression sgRNA for AKAP7 followed by single cell cloning. The PDE12/RNase L DKO cells were obtained by infecting the RNase L KO A549 cells with the pseudo lentivirus expressing sgRNA for AKAP7 followed by single cell cloning. Resulting clones were screened for knock-out of expression using Western Blots with anti-PDE12 antibody (Abcam ab87738), anti-AKAP7 (Proteintech: Cat#12591-1-AP) antibody or monoclonal antibody against human RNase L [13].” left out
as §3

[25] = test system: AKAP7 KO A549 cells; experiment: Cell survival, IncuCyte; assay type: cell-based, human; details: 50 uM AZA (FIG. 11)
Method: as §2, with “To obtain the PDE12/AKAP7 DKO cells, a PDE12 knockout A549 cell line was infected with pseudo lentiviruses expression sgRNA for AKAP7 followed by single cell cloning. The PDE12/RNase L DKO cells were obtained by infecting the RNase L KO A549 cells with the pseudo lentivirus expressing sgRNA for AKAP7 followed by single cell cloning. Resulting clones were screened for knock-out of expression using Western Blots with anti-PDE12 antibody (Abcam ab87738), anti-AKAP7 (Proteintech: Cat#12591-1-AP) antibody or monoclonal antibody against human RNase L [13].” left out
as §3

[26] = test system: AKAP7-PDE12 DKO A549 cells; experiment: Cell survival, IncuCyte; assay type: cell-based, human; details: 50 uM AZA (FIG. 11)
Method: as §2, with “To obtain the PDE12/AKAP7 DKO cells, a PDE12 knockout A549 cell line was infected with pseudo lentiviruses expression sgRNA for AKAP7 followed by single cell cloning. The PDE12/RNase L DKO cells were obtained by infecting the RNase L KO A549 cells with the pseudo lentivirus expressing sgRNA for AKAP7 followed by single cell cloning. Resulting clones were screened for knock-out of expression using Western Blots with anti-PDE12 antibody (Abcam ab87738), anti-AKAP7 (Proteintech: Cat#12591-1-AP) antibody or monoclonal antibody against human RNase L [13].” left out
as §3

Compound: Nc1ncn([C@@H]2O[C@H](CO)[C@@H](O)[C@H]2O)c(=O)n1 [AZA, 5-azacytidine]
- cell death ([1]; 50 uM AZA): 9%
- cell death ([1]; 100 uM AZA): 17%
- sensitivity to treatment (cell survival) ([1]; AZA 25 uM, 2-5A 1 uM transfected, or both): completely resistant
- AZA sensitivity ([1]; AZA (FIG. 19)): AZA resistant
- cell death ([2]; 50 uM AZA, by 60 hours of treatment): 85%
- cell survival ([2]; AZA 25 uM by itself): 57%
- AZA sensitivity ([2]; FIG. 7, compared with normal lung epithelia): highly sensitive
- cytotoxicity of AZA with ionizing radiation ([2]; IR 10 Gy for 10 min, then AZA 25 μM or 12.5 μM for 50 hr): potentiates the cytotoxicity of AZA
- induction of cell death by AZA [3]: sensitive
- induction of cell death by AZA [4]: sensitive
- induction of cell death by AZA [5]: relatively resistant
- cleaved PARP [6]: large increase in cleaved PARP
- PARP cleavage [7]: only a slight increase
- sensitivity to AZA treatment [8]: did not
- sensitivity to AZA treatment [9]: sensitized cells to AZA treatment
- cytotoxic effect of AZA [10]: highly sensitive
- caspase3/7 activation ([11]; 50 uM AZA): high levels of caspase3/7 activation
- caspase3/7 activation [12]: highly resistant
- caspase3/7 activation [13]: at best only a small effect in reducing caspase3/7 activation
- caspase3/7 activation [14]: resistant
- sensitivity to AZA [15]: relatively resistant
- AZA sensitivity [16]: resistant
- AZA sensitivity [17]: resistant
- AZA sensitivity [18]: resistant
- AZA sensitivity [19]: enhanced AZA sensitivity
- AZA sensitivity [20]: AZA resistant
- AZA sensitivity [21]: AZA resistant
- sensitivity to AZA treatment [22]: almost completely resistant
- sensitivity to AZA treatment [23]: slightly less sensitive
- cell survival [24]: 37%
- cell survival [25]: 56%
- cell survival [26]: 17%

Compound: CC(NC(=O)C(NC(=O)OCc1ccccc1)C(C)C)C(=O)NC(CC(=O)O)C(=O)CF (stereo not drawn) [Z-VAD] (Cbz-Val-Ala-Asp-CH2F; configuration not given here)
- effect on caspase3/7 activation by AZA ([11]; 50 uM Z-VAD in presence of 50 uM AZA): greatly suppressed caspase3/7 activation

Compound: Nc1ncn([C@H]2C[C@H](O)[C@@H](CO)O2)c(=O)n1 [DAC, 5-aza-2′-deoxycytidine]
- effect on survival ([1]; DAC, up to 70 hrs): no effect
- cell survival ([2]; 25 uM DAC, up to 70 hrs): 56%
- cell survival ([2]; 50 uM DAC, up to 70 hrs): 47%
- sensitivity to DAC relative to AZA ([2]; up to 70 hrs): less sensitive

Source: patent publication US20190002585A1, “CANCER TREATMENT METHODS AND COMPOSITIONS” (The Cleveland Clinic Foundation, priority 2017, published 2019)
